Measured values published in patent publication US20090264382A1, “Methods for Treating Hematopoietic Neoplasms” (priority 2007, published 2009).

How the values were obtained:
GFP-labeled U937 cells = assay: Systemic in vivo leukemia model, GFP+U937; set-up: species or system NOD-SCID mice; conditions: after 30 days, data not shown
Method: NOD-SCID mice were intravenously inoculated with 1×10^7 GFP+HL60 cells. The HL60 cells were labeled with green fluorescent protein (GFP) by a lentiviral construct, and inoculated systemically through tail vein injection. Three days after inoculation, mice were divided into 2 groups of five mice. One group was treated every other day with PBS (control) and the second group received 25 mg/kg CA4P every other day. Each experiment was done three times. At day 30 after the start of the experiment, two mice from each group were killed, and their organs (spleen, liver and lung), peripheral blood and marrow of surgically removed femurs were collected, and analyzed for the presence of human leukemic cells by flow cytometry. Single cell suspension was stained using phytoerythrin-labeled anti-human CD45 mAb (Pharmingen), and the percentage of double positive human CD45-PE and GFP cells was determined flow cytometer. The extent of GFP+HL60 cell infiltration was assessed by fluorescence microscopy. In a second set of experiments, GFP+U937 cells were used instead of HL60 cells, and the animals sacrificed after 30 days. […]

VCAM-1 [1] = assay: IL-1β-induced VCAM-1 expression in HUVECs, flow cytometry; format: cell-based, human; conditions: 1 to 5 nM
Method: Human umbilical vein endothelial cells (HUVECs) were activated with IL-1β (5 ng/ml) for 24 hours with CA4P added at concentrations from 0 to 5 nM. VCAM-1 expression was determined by flow cytometry with phytoerythrin-conjugated anti-CD106 (VCAM-1) mAb.

[2] = tested on: AML cells / panel of leukemic cell lines; assay: Leukemic cell proliferation, viable cell count by trypan blue exclusion; format: cell-based, human; conditions: 48 hours
Method: Leukemic cells were seeded at 1×10^5 cells/ml in X-vivo medium (Bio-Whittaker, MA) with 5% FBS and CA4P or pre-incubated with the PARP-inhibitor DPQ or caspase-inhibitors Z-VAD-fmk and Q-VD-OPh (R&D, Minneapolis, Minn.). A panel of leukemic cells was incubated with CA4P at the different concentrations indicated in FIG. 1, and viable cells were counted after 48 hours using trypan blue exclusion. Results of four experiments in duplicate are expressed as the ratio of the percentage of viable cells/control±SEM (*p<0.05 as compared with CA4P-untreated cells; n=4). After incubation for 48 hours, cells were counted using trypan-blue exclusion. CA4P at concentrations as low as 1 nM initiated cell death of non-adherent, anchorage-independent AML cells in vitro, with the IC50 ranging from 2.5 to 5 nM (FIG. 1). The majority of the AML cell lines tested was sensitive to CA4P at a concentration of 2.5 nM or less. All leukemic cell lines, as well as a recently established primary leukemic cell line (R81) 16 were sensitive at low doses of CA4P (<10 nM).

leukemic cells = assay: Release of mitochondrial membrane proteins, immunofluorescence; format: cell-based, human; conditions: after CA4P exposure, data not shown
Text: Mitochondrial damage may result in the release of pro-apoptotic mitochondrial membrane proteins (MMPs) such as cytochrome c, SMAC/diablo and ARTS. […] Cytochrome c and ARTS were detected using mAb clone 6H2.B4 (1:100, BD Pharmingen) and polyclonal-antibody A3720 (1:50, Sigma), both followed by AlexaFluor 488 conjugated secondary antibody (1:200, Molecular Probes) and analyzed by confocal microscopy.

GFP+HL60 cells = assay: Systemic in vivo leukemia model, GFP+HL60; set-up: species or system NOD-SCID mice
Method: NOD-SCID mice were intravenously inoculated with 1×10^7 GFP+HL60 cells. The HL60 cells were labeled with green fluorescent protein (GFP) by a lentiviral construct, and inoculated systemically through tail vein injection. Three days after inoculation, mice were divided into 2 groups of five mice. One group was treated every other day with PBS (control) and the second group received 25 mg/kg CA4P every other day. Each experiment was done three times. At day 30 after the start of the experiment, two mice from each group were killed, and their organs (spleen, liver and lung), peripheral blood and marrow of surgically removed femurs were collected, and analyzed for the presence of human leukemic cells by flow cytometry. Single cell suspension was stained using phytoerythrin-labeled anti-human CD45 mAb (Pharmingen), and the percentage of double positive human CD45-PE and GFP cells was determined flow cytometer. The extent of GFP+HL60 cell infiltration was assessed by fluorescence microscopy. In a second set of experiments, GFP+U937 cells were used instead of HL60 cells, and the animals sacrificed after 30 days.
In the untreated control group, the mice survived for 32-40 days only and succumbed to systemic spread of leukemia. […] This increase in survival was accompanied by a decrease in circulating leukemic cells observed 30 days after leukemic cell injection, as assessed by flow cytometry determination of double positive cells for human CD45 and GFP (0.9% for control vs. 0.2% for CA4P treatment, p<0.05, n=5) (FIG. 12). Thirty days after xenotransplantation of GFP+HL60 cell injection, the presence of GFP+HL60 cells in the peripheral blood and the different tissues of the mice was assessed by quantification of double positive GFP and human CD45 cells by flow cytometry. […] In contrast, control mice had massive leukemic infiltrates in the spleen (5.2%), liver (2.6%) and lung (3.5%) (FIG. 12).

VCAM-1 [3] = assay: VCAM-1 immunofluorescence in subcutaneous HL60 AML tumors; format: in vivo, NOD-SCID mice; conditions: data not shown
Method: CA4P may modulate leukemia-vascular interactions, thereby disrupting chemo-protected niches for leukemic cells. […] NOD-SCID mice with subcutaneous HL60 AML tumors were treated with CA4P or PBS (untreated control).

KG1a leukemic cells = assay: Release of nuclear HMG1 protein into supernatant (necrosis marker), Western blot; format: cell-based, human; conditions: 24 hours, CA4P 20 mM, staurosporine 100 μM as printed
Method: Nonetheless, to rule out the possibility that CA4P may trigger necrotic cell death in subsets of the leukemic cells, the release of nuclear HMG1 protein into the culture supernatant, which has been described as a sensitive and highly specific marker for necrotic cell death (Scaffidi, et al. 2002. Nature 418, 191-5), was quantified. For detection of HMG1 protein, KG1a leukemic cells (1×106 in 2 ml X-vivo/5% FBS) were incubated with 100 μM staurosporine to induce apoptosis, freeze-thawed three times to induce necrosis, or treated with 20 mM CA4P for 24 hours. Cells were spun down, pelleted and the supernatant subjected to Western blot for HMG135.

[4] = day 30, 25 mg/kg every other day

COc1ccc(/C=C\c2cc(OC)c(OC)c(OC)c2)cc1OP(=O)(O)O [CA4P, combretastatin A-4 phosphate]
GFP-positive U937 leukemic cells in the bone marrow (GFP-labeled U937 cells): less than 0.05%
GFP-positive U937 leukemic cells in the liver (GFP-labeled U937 cells): less than 0.05%
apoptosis of HUVECs (VCAM-1 [1]): without inducing apoptosis
VCAM-1 expression on IL-1β-activated HUVECs (VCAM-1 [1]; 24 hours, IL-1β 5 ng/ml): significantly reduced expression of VCAM-1
concentration at which all leukemic cell lines and primary line R81 were sensitive [2]: < 10 nM
concentration at which the majority of the AML cell lines tested was sensitive [2]: ≤ 2.5 nM
lowest concentration that initiated cell death of AML cells ([2]; in vitro): 1 nM
IC50 ([2]; Homo sapiens, trypan blue exclusion, range over cell lines, read-out: IC50, cell death of non-adherent, anchorage-independent AML cells): 2.5 to 5 nM
mitochondrial membrane protein release (leukemic cells): release of cytochrome c and ARTS from mitochondria
survival of intravenously xenotransplanted mice (GFP+HL60 cells; 25 mg/kg every other day): significantly increased survival
circulating leukemic cells (human CD45 and GFP double positive) in peripheral blood (GFP+HL60 cells; [4]): 0.2%
engraftment of leukemic cells in the bone marrow (GFP+HL60 cells; [4]): completely eradicated
human CD45 and GFP positive cells in the liver (GFP+HL60 cells; [4]): 0.1%
infiltration of GFP+HL60 cells in the lung (GFP+HL60 cells; [4]): no evidence of infiltration
infiltration of GFP+HL60 cells in the spleen (GFP+HL60 cells; [4]): no evidence of infiltration
VCAM-1 expression in tumors (VCAM-1 [3]): significantly decreased VCAM-1 expression
release of nuclear HMG1 protein into the supernatant (KG1a leukemic cells): not
